{
  "source": "patent US7339042B2",
  "about": "“Gene delivery to tumors” (University of Florida Research Foundation, Inc., priority 2003, dated 2008)",
  "key": {"A172 glioblastoma cells": {"system": "A172 glioblastoma cells", "experiment": "Peptide incubation with A172 glioblastoma cells, viability", "type": "cell-based, human", "details": "6 μM, 30 minutes at 37° C.", "experimental": "Fusion proteins containing a Tat domain and a p16 domain were synthesized as peptides. Two forms of the peptides were made, one with Tat on the amino terminus (designated Tat-P16), and the other with p16 on the amino terminus (P16-Tat). Control peptides were synthesized having only the Tat or P16 sequence. The peptides were incubated with A172 glioblastoma cells, then the cells were assayed for viability."}, "rat cerebral arteries [1]": {"system": "rat cerebral arteries", "experiment": "Vasodilation and vasoconstriction response of rat cerebral arteries before and after peptide", "type": "cell-based", "details": "after vs before intraluminal peptide", "experimental": "The blood vessels were put in culture described above and perfused with buffer of the same composition as cerebrospinal fluid. Vessel diameter was measured before and after administration of each reagent. 3 μM of each peptide was perfused through for 10 minutes followed by a 10 minute wash through. Vasoconstriction and vasodilation were determined for each vessel before peptide was applied. Perfusion was continued until the vessels relaxed to their original diamter (approximately 30 minutes). The vasoconstriction and vasodilation reponse was remeasured after the 10 minute wash through. The 60 mM KCl and 16 mM KCl conditions are […], respectively. Histamine and Bradykinin are endothelial cell vasodilators.\n(§1) In some experiments, the arterial segments were denuded of endothelium by passing an air bubble through the lumen, thus exposing the smooth muscle cells to luminally administered peptides. Constriction to pressure and 60 mM KCl and dilation of arteries with myogenic tone to 16 mM KCl were used as benchmarks of functional arteries. Peptide containing PCSF was perfused intraluminally at an inlet pressure of 70 mmHg with the outlet open, for 20 min and then perfused with normal PCSF. This procedure ensures a 20 min of exposure of the arteries to the peptide.\n(§2) Effect of peptide on endothelial and smooth muscle function was evaluated by histamine (0.3 and 1 μM) and bradykinin (0.5 μM) (endothelium-dependent vasodilators) and 16 and 60 mM KCl (results in dilation and constriction of arteries by hyperpolarizing and depolarizing smooth muscle, respectively). These drug solutions were added to the superfusate and applied to the arteries extraluminally for 10 to 15 min before and after intraluminal perfusion with peptides. Effects of these agents were expressed as percent change in myogenic tone (decrease for dilators and increase for constrictors). Experiments were concluded by exposing the arteries to calcium free PCSF to obtain the passive diameter. Cell viability was determined by adding H3334 (Hoechst viability stain, final concentration 1 μM) and propidium iodide (final concentration 1 μM) to the arteriograph after the peptide incubation. Fluorescent micrographs were taken of the vessels after incubation with peptides and following addition of the vital stains using Till Photonics imaging system (Martinsried, Germany)."}, "RG2 cells [2]": {"system": "RG2 cells", "experiment": "Fluorescein peptide uptake by RG2 cells, fluorescence microscopy", "type": "cell-based, rat", "experimental": "(§3) For fluorescent microscopy studies cells were plated on 2 chamber cover slips at a density of 1×10^4 cells/chamber. Cells were incubated with […] peptide for 30 minutes in completed media, washed with PBS 3× and imaged using a Nikon Axiophot inverted fluorescent microscope. Images were taken using a Spot CCD camera.\nSimilar observations were obtained for all the peptides in another human glioblastoma cell line, T98G."}, "[3]": {"system": "endothelial cells and smooth muscle cells of rat cerebral arteries", "experiment": "Uptake of fluorescent peptides by pressure-mounted rat cerebral arteries", "type": "cell-based", "experimental": "Tat-P16 peptides were prepared and labeled with fluorescein for use in uptake studies using intact blood vessels isolated from rat brain. Blood vessels were dissected from rat brain and stabilized in an isolated perfusion system in which vessels were attached on either end to catheters and placed under physiological pressure. Following a 10 minute perfusion of the isolated vessels with flurorescent Tat-P16 peptide (1 μM), vessels were examined for uptake of the peptides. […] Within the endothelial cells, the labeled peptides were seen to be localized to the cell nuclei, further confirming uptake of the peptides by the cells.\nThe peptides are fairly labile in the media and approximately 50% are degraded upon incubation at 37° C. in complete media (qualitative analysis by PAGE) after 1 hour. […] Uptake of these peptides and cell killing activity was tested in a 3 dimensional organ culture using rat cerebral arteries cultured under physiological pressure and flow. A segment of the rat cerebral artery is surgically removed and placed in ringer's solution. Using a surgical stereoscope, the blood vessel is tied at either end to two cannulas on a teflon stage. Ringer's solution is perfused through the lumen of the vessel at a constant rate that maintains physiologic hydrostatic pressure. The fluorescent peptide was introduced intraluminally by perfusing a 1 μM solution of peptide through the lumen over a 10 minute period.\nRats were anesthetized by intraperitoneal injection of pentobarbital sodium (160 mg/kg) and killed by decapitation. The brain was removed and placed in an ice-cold oxygenated physiological cerebrospinal fluid (PCSF, see below for composition). Cerebellar arteries were isolated and mounted in an arteriograph as described previously (Knot and Nelson 1998). The arteriograph was placed on an inverted microscope and the artery was visualized with a monochrome CCD camera coupled to a calibrated video caliper system to measure arterial diameter. The arteries were slowly pressurized to 70 mmHg under no flow conditions using a pressure servo-null system (Living Systems Inc., Burlington Vt.), and warmed to 37° C. while being continuously superfused (5 ml/min) with PCSF bubbled with 21% O2, 5% CO2, 74% N2 (pH 7.35-7.40 in the bath). […] Myogenic tone is calculated by the following equation: Myogenic tone=(Dp−Da)/Dp×100\nas §1"}, "RG2 cells [4]": {"system": "RG2 cells", "experiment": "Fusion peptide cell killing, propidium iodide/FACS viability, RG2 cells", "type": "cell-based, rat", "experimental": "(§4) Other experiments were performed using two glioma cell lines, i.e., T98G and RG2. 1×10^6 cells per well were incubated in 6-well plates with peptides in complete media for 1 hr. Cells were removed from the plate using a cell stripper and the percentage of viable cells was determined by staining with propidium iodide and analyzing by fluorescence activated cell sorting (FACS).\nThere are 4 conserved amino acid differences between the rat and human CDKI sequence. Both sequences were attached to Tat and tested for cell killing activity in the rat glioma RG2 cells. Also the effect of orientation of the Tat and CDKI domains were tested. RG2 cells were plated on 6 well plates at approximately 70% confluency. Each of the peptides was added to the wells with increasing concentration. After 1 hr, cells were removed from the plates, washed 2× with PBS, stained with propidium iodide and analyzed by FACS for viable cells.\n(§5) Cell viability studies were performed by plating the cells under the same conditions as the uptake studies. Cells were incubated with fluorescent peptides for 1 hr at 37° C. The cells were removed from the plate using cell striper. They were labeled with propidium iodide and fluorescein-AM. Percent PI positive cells were determined by FACS.\nThe cytotoxicity of the chimeric peptides was characterized using a cell viability assay. Peptides were added to cells at a fixed concentration. After a 30-minute incubation, cells were removed from the plate, stained with propidium iodide and the % positive cells were determined by FACS (fluorescent activated cell scanning). The test conditions were Tat, ANT, Tat-P14ARF, ANT-P14ARF and P14ARF. T98G cells were tested along with RG2 cells and A172 cells."}, "rat cerebral arteries [5]": {"system": "rat cerebral arteries", "experiment": "Cell viability staining of arteries (propidium iodide, H3334) after peptide", "type": "cell-based", "details": "after treatment with peptide", "experimental": "No PI statined smooth muscle cell nuclei were observed.\nas §2"}, "A172 cells": {"system": "A172 cells", "experiment": "Fluorescein peptide uptake by A172 cells, fluorescence microscopy", "type": "cell-based, human", "details": "30 uM peptide, 1 hr, 37° C., serum containing media", "experimental": "as §3\nSynthetic peptides derived from HIV Tat (Tat) and the Drosophila antennaepedia homeodomain (ANT) were tested for cell uptake by A172 cells (human glioblastomas). The peptides were labeled at the N-terminus with fluorescein. Cells were incubated with 30 uM peptide at 37° C. in serum containing media. Fluorescent micrographs were taken after 1 hr incubation at 37° C. […] The size of the peptide was increased by added an Mdm-2 binding domain derived from P14ARF. This domain was added to the C-terminus of the Tat and ANT peptides. The P14ARF domain was also placed at the N-terminus followed by the Tat peptide. All the peptides were labeled at the N-terminus with fluorescein and cell incubations similar to the Tat and ANT peptides were tested for cellular uptake. […] Both the bright field and fluorescent micrographs show altered cell morphology."}, "T98G cells": {"system": "T98G cells", "experiment": "Fusion peptide cell killing, propidium iodide/FACS viability, T98G cells", "type": "cell-based, human", "details": "10 μM peptide, 1 hr", "experimental": "as §4, §5"}, "[6]": {"details": "intraluminal perfusion of fluorescent peptide"}},
  "note": "Entries after “also recorded” stand apart in the source; their conditions may differ. No end group written: not given here.",
  "data": [
    {"sequence": "AGGGYGRKKRRQRRRMVRRFLVTLRIRRA [Tat-P14ARF]", "values": [
      {"measurement": "effect on cells", "setting": "A172 glioblastoma cells", "value": "began to round up and subsequently die"},
      {"measurement": "endothelium-dependent dilation to histamine and bradykinin", "setting": "rat cerebral arteries [1]", "value": "inhibited endothelial cell response to histamine and bradykinin; also recorded: significantly reduced"},
      {"measurement": "smooth muscle response to 60 and 16 mM KCl", "setting": "rat cerebral arteries [1]", "value": "unaffected; also recorded: not affected"},
      {"measurement": "endothelium-dependent dilation to histamine and bradykinin", "setting": "rat cerebral arteries [1]; listed as Tat-CDKI", "value": "lack of response to vasodilators"},
      {"measurement": "staining pattern (cell uptake)", "setting": "RG2 cells [2]", "value": "nuclear staining"},
      {"measurement": "morphology of the endothelial cells", "setting": "[3]; after intraluminal exposure", "value": "morphology of the endothelial cells was altered"},
      {"measurement": "labeling/uptake by endothelial cells", "setting": "[3]; [6]", "value": "same labeling pattern as the Tat alone"},
      {"measurement": "labeling/uptake by smooth muscle cells", "setting": "[3]; [6]", "value": "No evidence was seen of uptake"},
      {"measurement": "labeling/uptake by endothelial cells", "setting": "[3]; intraluminal perfusion of fluorescent peptide, listed as Tat-P16", "value": "taken up by the endothelial cells; also recorded: localized to the endothelial cells"},
      {"measurement": "% killing (toxicity)", "setting": "RG2 cells [4]; 10 μM peptide, 1 hr", "value": 61, "unit": "%"},
      {"measurement": "IC50", "setting": "RG2 cells [4]; dose response 1 μM to 10 μM", "value": "~10", "unit": "µM"},
      {"measurement": "propidium iodide staining of blood vessels", "setting": "rat cerebral arteries [5]", "value": "predominantly horizontal endothelial nuclei being stained indicating cell death"},
      {"measurement": "staining pattern (cell uptake)", "setting": "A172 cells", "value": "nuclear staining"},
      {"measurement": "% killing (toxicity)", "setting": "T98G cells", "value": 65, "unit": "%"}
    ]}
  ]
}
